Results: patent US10874687B1 (Atea Pharmaceuticals, Inc., priority 2020, dated 2020)
Several values for one entry are separate records, joined by “and”; a condition that tells them apart may be missing. Identical values can stand only once. Like-named read-outs stand apart in the source and are kept apart here. Marks after values point to notes of the source that are not given here.

Experiments:
[1] = test system: MERS-CoV (EMC); assay: microbe, parasite or virus in culture; assay type: cell-based
[2] = Plasma PK of metabolites in non-human primates after oral Compound 2A; conditions: cynomolgus, cynomolgus monkey, in vivo, 30 mg/kg
[3] = test system: mock infected BHK cells; assay: Cytotoxicity in mock infected BHK-21 cells (MTT); assay type: cell-based, hamster; conditions: mock infected BHK cells; MTT; 3 days; Table 2B
Procedure: (§1) To determine the cytotoxicity, cells were seeded at an initial density of 1×10^6 cells/mL in 96 well plates containing Minimum Essential Medium with Earles's salts (MEM-E), L-glutamine, 1 mM sodium pyruvate and 25 mg/L kanamycin, supplemented with 10% fetal bovine serum. Cell cultures were then incubated at 37° C. in a humidified 5% CO2 atmosphere in the absence or presence of serial dilutions of test compounds. Cell viability was determined by the MTT method.
(§2) BHK-21 cells: Test compounds were dissolved in DMSO at 100 mM and then diluted in Minimum Essential Medium with Earle's salts (MEM-E) containing 1 mM sodium pyruvate and 25 μg/mL kanamycin, supplemented with 10% FBS (growth medium) to final concentrations of 100, 20, 4 and 0.8 μM (two 24-well replica plates each). After BHK-21 cells were grown to confluency in 96-well plates, growth medium was replaced with fresh maintenance medium (growth medium with 1% inactivated FBS in place of 10% FBS) containing serially diluted test compound and HCoV-229E at a multiplicity of infection (MOI) of 0.01. Uninfected cells in the presence of serially diluted compound were used to assess the cytotoxicity of compounds. After a 3-day incubation at 37° C. in a humidified 5% CO2 atmosphere, cell viability was determined by the MTT method (Pauwels, R et al. J. Virol. Methods 20(4):309-321 (1988)).

[4] = Cytotoxicity in mock infected BHK-21 cells (MTT); assay type: cell-based, hamster; conditions: hamster
Procedure: as §1, §2

[5] = Cytotoxicity in mock infected MES-1 cells (MTT); assay type: cell-based; conditions: Table 3A
Procedure: as §1

[6] = test system: mock infected MES-1 cells; assay: Cytotoxicity in mock infected MES-1 cells (MTT); assay type: cell-based; conditions: 3 days, Table 3B
Procedure: as §1

[7] = test system: SARS-CoV (Urbani); assay: microbe, parasite or virus in culture; assay type: cell-based, SARS-CoV-1
[8] = test system: HCoV-229E, HCoV-OC43, SARS-CoV-1 and SARS-CoV-2; assay: organism not typed; assay type: cell-based, human coronaviruses; conditions: read-out: individual EC90 values
[9] = in vitro; conditions: human
[10] = test system: HCoV-229E; conditions: HCoV-229E in MRC-5 cells; cited from earlier work
[11] = test system: SARS-CoV-2 (WA1); assay: microbe, parasite or virus in culture; assay type: cell-based
[12] = test system: HCoV; assay: Protection of MES-1 cells from virus-induced cytopathogenicity (MTT); assay type: cell-based; conditions: unidentified human coronavirus, 72 h, 50% protection of MES-1 cells, day 3 post-infection
Procedure: (§3) After a 3-day incubation at 37° C. cell viability was determined by the MTT method as described by Pauwels et al. (J. Virol. Methods 1988, 20, 309-321).

[13] = test system: HCoV-229E; assay: Protection of BHK-21 cells from virus-induced cytopathogenicity (MTT); assay type: cell-based, human coronavirus; conditions: for EC50: Human coronavirus 229E
Procedure: as §3
In an initial screening, BHK-21 cells acutely infected with a seasonal human alpha coronavirus, HCoV-229E, were exposed to serial dilutions of Compound 1A. […] No toxicity was detected from either drug.
as §2

[14] = in vitro; conditions: human; remark: listed apart in the source
[15] = test system: Huh-7 cells; conditions: human
[16] = test system: HCoV-229E; assay: microbe, parasite or virus in culture; assay type: cell-based, human coronavirus alpha-229E
[17] = test system: HCoV-OC43; assay: microbe, parasite or virus in culture; assay type: cell-based, human coronavirus beta-OC43; conditions: Betacoronavirus 1, OC43, Huh-7, read-out: VYR EC90
[18] = test system: HCoV-OC43; assay: microbe, parasite or virus in culture; assay type: cell-based, human coronavirus beta-OC43
[19] = in vitro; conditions: human; remark: listed apart in the source

With `CNc1nc(N)nc2c1ncn2[C@@H]1O[C@H](CO[P@@](=O)(N[C@@H](C)C(=O)OC(C)C)Oc2ccccc2)[C@@H](O)[C@@]1(C)F` [Compound 1A] the EC90 ([1]; Middle East respiratory syndrome-related coronavirus, Huh-7, read-out: average EC90, MERS-CoV in Huh-7) was 36 µM, the EC90 ([1]; read-out: average EC90, MERS-CoV in Huh-7) was 37 µM and the AUC(0-t) [2] was 0.44 µM·h. The Cmax [2] was 640 nM, the Tmax [2] was 30 to 60 min and the half-life [2] was 44.4 min. For the same compound, the CC50 [3] was greater than 100 µM, the CC50 at 3 days ([4]; mock infected BHK-21 cells, mock infected BHK cells, MTT, 3 days, Table 2A) was greater than 100 µM and the CC50 at 3 days ([4]; uninfected BHK-21 cells, BHK-21, Table 5) was greater than 100 µM. For the same compound, the CC50 at 3 days [5] was greater than 100 µM, the CC50 [6] was greater than 100 µM and the “Selectivity Index” value ([7]; CC50/EC90, SARS-CoV (Urbani) in Huh7 cells) was greater than 250. For the same compound, the EC90 ([7]; Severe acute respiratory syndrome coronavirus, Huh-7, read-out: Virus Yield Reduction Assay EC90) was 340 nM and 0.2 µg/mL, the EC90 [8] was 0.34 to 1.2 µM and the CC50 [9] was greater than 50 µg/mL. The EC50 [10] was greater than 100 µM, the EC90 ([11]; Severe acute respiratory syndrome coronavirus 2, HAE, read-out: EC90 of the single replicates) was 0.57 µM and the EC90 ([11]; Severe acute respiratory syndrome coronavirus 2, HAE, read-out: Virus Yield Reduction Assay EC90) was 470 nM and 0.37 µg/mL. For the same compound, the EC90 ([11]; Severe acute respiratory syndrome coronavirus 2, HAE, read-out: average EC90) was 0.54 µM, the EC90 ([11]; Severe acute respiratory syndrome coronavirus 2, HAE, read-out: replicate EC90 determinations) was 0.33 µg/mL and the EC90 ([11]; read-out: Virus Yield Reduction Assay EC90) was 0.51 µM and 0.64 µM. For the same compound, the EC90 ([11]; read-out: average EC90) was 0.5 µM and ~0.55 µM, the EC50 ([12]; Table 3A) was 1.6 µM and the EC50 ([12]; Table 3B) was 2 µM. For the same compound, the “Selectivity Index” value ([13]; CC50/EC50, HCoV-229E in BHK-21) was >58^c, the EC50 ([13]; BHK, 72 h, 50% protection of BHK cells, MTT, day 3 post-infection, Table 2A, read-out: EC50) was 1.6 µM and the EC50 ([13]; BHK, 72 h, 50% protection of BHK cells, MTT, day 3 post-infection, Table 2B, read-out: EC50) was 2 µM. For the same compound, the EC50 ([13]; BHK-21, HCoV-229E in BHK-21, dye staining, average of 2 experiments, Table 5, read-out: EC50) was 1.8 µM, the EC50 ([13]; BHK-21, HCoV-229E in BHK-21, the 2 experiments behind the average, read-out: EC50 of the single experiments) was 1.6 µM and the CC50 [14] was greater than 86 µM. For the same compound, the “Neutral Red Assay CC50” value [15] was >50^ μg/mL, the “Selectivity Index (CC50/EC90)” value ([16]; HCoV-229E in Huh-7) was greater than 75 and the EC50 ([16]; Human coronavirus 229E, Huh-7, read-out: Neutral Red Assay EC50) was 1.7 µM. It also gave an EC50 ([16]; Human coronavirus 229E, Huh-7, read-out: Neutral Red EC50) of 1 µM, an EC90 ([16]; Human coronavirus 229E, Huh-7, read-out: VYR EC90) of 0.71 µM and an EC90 ([16]; Human coronavirus 229E, Huh-7, read-out: Virus Yield Reduction Assay EC90) of 1 µM. It also gave an EC50 ([16]; Human coronavirus 229E, Huh-7, read-out: Visual EC50) of 1 µM, an EC50 ([16]; read-out: Neutral Red Assay EC50) of 1.6 µM and an EC90 [17] of 0.29 µM. For the same compound, the EC50 ([18]; Betacoronavirus 1, OC43, RD, read-out: Neutral Red Assay EC50) was 2.8 µM, the EC90 ([18]; Betacoronavirus 1, OC43, RD, read-out: Virus Yield Reduction Assay EC90) was 2.2 µM and the “Selectivity Index (CC50/EC90)” value ([18]; HCoV-OC43 in RD) was greater than 39. For the same compound, the CC50 ([19]; Neutral Red Assay CC50) was greater than 86 µM, the CC50 ([19]; Neutral Red CC50) was greater than 50 µM and the CC50 ([19]; Visual CC50) was greater than 50 µM.
